Source: article PMC8881610 (Nature Communications, 2022)
Residue numbers refer to the chain shown, from its start.

Tests used:
[1] = target: T1, GIPR (Homo sapiens, UniProt P48546); test: β-arrestin 2 recruitment (BRET); format: cell-based; design: expressed in transfected cells; host or cells: HEK293T; conditions: GIPR WT, HEK293T; for EC50: read-out: β-arrestin 2 recruitment pEC50 (converted); for Emax: HEK-293T
T1 sequence (P48546 22-466): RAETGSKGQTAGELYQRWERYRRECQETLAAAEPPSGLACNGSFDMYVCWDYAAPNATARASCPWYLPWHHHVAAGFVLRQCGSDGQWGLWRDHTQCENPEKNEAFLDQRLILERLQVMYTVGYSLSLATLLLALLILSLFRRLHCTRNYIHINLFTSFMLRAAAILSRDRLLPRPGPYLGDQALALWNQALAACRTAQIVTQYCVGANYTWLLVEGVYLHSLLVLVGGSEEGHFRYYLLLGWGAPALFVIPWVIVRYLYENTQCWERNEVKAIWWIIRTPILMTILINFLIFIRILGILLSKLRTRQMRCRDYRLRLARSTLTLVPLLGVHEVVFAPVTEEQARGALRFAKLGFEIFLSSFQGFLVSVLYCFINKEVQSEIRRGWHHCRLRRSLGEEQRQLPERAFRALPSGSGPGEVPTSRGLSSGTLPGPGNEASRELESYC
Protocol: After cells were grown for 24 h, transiently transfected cells were then seeded onto poly-D-lysine coated 96-well culture plates (50,000 cells/well) in DMEM with 10% FBS. Cells were grown for 20 h before incubation in assay buffer (HBSS supplemented with 10 mM HEPES, 0.1% BSA or 0.1% casein, pH 7.4) for 30 min at 37 °C. Coelentrazine-h (Yeasen Biotech) was added to a final concentration of 5 μM for 5 min before bioluminescence resonance energy transfer (BRET) readings were made using an EnVision plate reader (PerkinElmer). BRET baseline measurements were collected for 15 cycles prior to ligand addition. After which, BRET was measured for 55 cycles.

[2] = target: GLP-1R (Homo sapiens, UniProt P43220, Y148A); test: Whole-cell binding assay, competition with 125I-GLP-1(7-36)NH2; design: Flag; expressed in transfected cells; conditions: GLP-1R Y148A, CHO-K1
Protocol: (§1) Human embryonic kidney 293 cells containing SV40 large T-antigen (HEK293T) were cultured in DMEM (Gibco) supplemented with 10% (v/v) fetal bovine serum (FBS, Gibco), 1 mM sodium pyruvate (Gibco) and 100 units/mL penicillin and 100 μg/mL streptomycin at 37 °C in 5% CO2. Chinese hamster ovary (CHO-K1) cells were cultured in F-12 (Gibco) containing 10% FBS, 100 units/mL penicillin and 100 μg/mL streptomycin at 37 °C in 5% CO2. For cAMP and receptor expression assays, HEK293T cells were seeded into 6-well cell culture plates at a density of 7 × 10^5 cells per well. After overnight incubation, cells were transfected with GIPR, GLP-1R or GCGR construct using Lipofectamine 2000 or Lipofectamine 3000 transfection reagent (Invitrogen). For whole-cell binding assay, CHO-K1 cells were seeded into 96-well fibronectin-treated cell culture plates at a density of 3 × 10^4 cells per well. After overnight incubation, cells were transfected with GIPR, GLP-1R or GCGR construct using Lipofectamine 2000 transfection reagent (Invitrogen). Following 24 h culturing, the transfected cells were ready for use.
(§2) For GLP-1R and GCGR, CHO-K1 cells (30,000 cells/well) were seeded into Isoplate-96 plates and incubated for 24 h at 37 °C in 5% CO2. The WT or mutant constructs were transiently transfected using Lipofectamine 2000 transfection reagent as previous described. They were then washed twice using F-12 with 0.1% BSA or 0.1% casein, 33 mM HEPES, and incubated for 2 h at 37 °C. […] Cells were washed three times with ice-cold PBS and lysed in PBS with 1% Triton X-100, 20 mM Tris-HCl. After addition of scintillation cocktail (PerkinElmer), radioactivity (CPM) was counted on a MicroBeta^2 microplate counter (PerkinElmer). Data were normalized to the WT response and analyzed using three-parameter logistic equation.

[3] = target: GLP-1R (Homo sapiens, UniProt P43220, W214A); test: as above; design: Flag; expressed in transfected cells; conditions: GLP-1R W214A, CHO-K1
Protocol: as §1, §2

[4] = target: T2, GIPR (Homo sapiens, UniProt P48546, Y36A); test: cAMP accumulation assay (LANCE Ultra cAMP kit), GIPR WT, mutant or modified constructs; format: cell-based; design: acylated tirzepatide to the full-length or modified; Flag; expressed in transfected cells; host or cells: HEK293T; conditions: GIPR Y36A, HEK293T; for EC50: read-out: cAMP pEC50 (converted)
T2 sequence (P48546 22-466 Y36A): T1 sequence (P48546 22-466) with Y15A
Summary of the method: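 HEK293T cells transiently transfected with human GIPR WT or mutant constructs (pcDNA3.1), used after 24 h. The cells were stimulated with peptide agonists for 40 min at RT in HBSS with 5 mM HEPES, 0.1% BSA or casein, and 0.5 mM IBMX. cAMP was read by LANCE Ultra TR-FRET (Eu-cAMP tracer/ULight anti-cAMP, 1 h RT, 620/650 nm).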

[5] = read-out: binding pIC50 (converted)

Chain of GLP-1R (Homo sapiens, UniProt P43220, Y148A) (P43220 24-463 Y148A): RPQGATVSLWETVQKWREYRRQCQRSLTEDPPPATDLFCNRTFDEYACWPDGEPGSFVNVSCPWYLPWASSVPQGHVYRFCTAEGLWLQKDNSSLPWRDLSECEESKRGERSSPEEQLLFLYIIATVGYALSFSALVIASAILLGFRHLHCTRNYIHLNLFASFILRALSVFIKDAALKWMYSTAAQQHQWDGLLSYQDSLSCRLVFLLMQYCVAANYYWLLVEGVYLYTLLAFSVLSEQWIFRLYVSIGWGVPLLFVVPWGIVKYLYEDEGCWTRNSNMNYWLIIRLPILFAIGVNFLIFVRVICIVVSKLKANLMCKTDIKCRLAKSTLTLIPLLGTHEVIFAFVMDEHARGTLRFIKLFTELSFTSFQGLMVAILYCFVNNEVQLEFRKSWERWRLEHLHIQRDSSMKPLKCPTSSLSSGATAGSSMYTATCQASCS
Chain of GLP-1R (Homo sapiens, UniProt P43220, W214A) (P43220 24-463 W214A): as the sequence (P43220 24-463 Y148A) above, with A125Y, W191A counted along it

Row | Structure (SMILES) | EC50 ([1]; 0.1% casein) [nM] | Emax ([1]; 0.1% BSA) [%] | Emax ([1]; 0.1% casein) [%] | binding Span [2] [% WT] | IC50 [2, 5] [nM] | binding Span [3] [% WT] | IC50 [3, 5] [nM] | EC50 [4] [nM] | Emax ([4]; HEK-293T) [%]
1 | CC[C@H](C)[C@H](NC(=O)[C@H](CC(C)C)NC(=O)[C@H](Cc1c[nH]c2ccccc12)NC(=O)[C@H](CCC(N)=O)NC(=O)[C@@H](NC(=O)[C@H](Cc1ccccc1)NC(=O)[C@H](C)NC(=O)[C@H](CCCCN)NC(=O)[C@H](CCC(N)=O)NC(=O)[C@H](C)NC(=O)[C@@H](NC(=O)[C@H](CCCCN)NC(=O)[C@H](CC(=O)O)NC(=O)[C@H](CC(C)C)NC(=O)C(C)(C)NC(=O)[C@@H](NC(=O)[C@H](CO)NC(=O)[C@H](Cc1ccc(O)cc1)NC(=O)[C@H](CC(=O)O)NC(=O)[C@H](CO)NC(=O)[C@@H](NC(=O)[C@H](Cc1ccccc1)NC(=O)[C@@H](NC(=O)CNC(=O)[C@H](CCC(=O)O)NC(=O)C(C)(C)NC(=O)[C@@H](N)Cc1ccc(O)cc1)[C@@H](C)O)[C@@H](C)O)[C@@H](C)CC)[C@@H](C)CC)C(C)C)C(=O)N[C@@H](C)C(=O)NCC(=O)NCC(=O)N1CCC[C@H]1C(=O)N[C@@H](CO)C(=O)N[C@@H](CO)C(=O)NCC(=O)N[C@@H](C)C(=O)N1CCC[C@H]1C(=O)N1CCC[C@H]1C(=O)N1CCC[C@H]1C(=O)N[C@@H](CO)C(N)=O [Non-acylated tirzepatide] | 14.8 | 57.1 ± 1.97 | 59.8 ± 1.01 | – | – | – | – | – | –
2 | CCCCCCCCCCCCCCCC(=O)N[C@@H](CCC(=O)NCCCC[C@H](NC(=O)[C@H](CC(=O)O)NC(=O)[C@H](CO)NC(=O)[C@@H](NC(=O)[C@H](Cc1ccccc1)NC(=O)[C@@H](NC(=O)CNC(=O)[C@H](CCC(N)=O)NC(=O)C(C)(C)NC(=O)[C@@H](N)Cc1c[nH]cn1)[C@@H](C)O)[C@@H](C)O)C(=O)N[C@@H](CO)C(=O)N[C@@H](CCCCN)C(=O)N[C@@H](Cc1ccc(O)cc1)C(=O)N[C@@H](CC(C)C)C(=O)N[C@@H](CC(=O)O)C(=O)N[C@@H](CCC(=O)O)C(=O)N[C@@H](CCCNC(=N)N)C(=O)N[C@@H](C)C(=O)N[C@@H](C)C(=O)N[C@@H](CCC(N)=O)C(=O)N[C@@H](CC(=O)O)C(=O)N[C@@H](Cc1ccccc1)C(=O)N[C@H](C(=O)N[C@@H](CCC(N)=O)C(=O)N[C@@H](Cc1c[nH]c2ccccc12)C(=O)N[C@@H](CC(C)C)C(=O)N[C@@H](CC(C)C)C(=O)N[C@@H](CC(=O)O)C(=O)NCC(=O)NCC(=O)N1CCC[C@H]1C(=O)N[C@@H](CO)C(=O)N[C@@H](CO)C(=O)NCC(=O)N[C@@H](C)C(=O)N1CCC[C@H]1C(=O)N1CCC[C@H]1C(=O)N1CCC[C@H]1C(=O)N[C@@H](CO)C(N)=O)C(C)C)C(=O)O [Peptide 20] | – | – | – | 8.73 ± 2.65 | 15.5 | 10.25 ± 1.71 | 17 | 0.0123 | 100 ± 1.62
3 | CC[C@H](C)[C@H](NC(=O)[C@H](CC(C)C)NC(=O)[C@H](Cc1c[nH]c2ccccc12)NC(=O)[C@H](CCC(N)=O)NC(=O)[C@@H](NC(=O)[C@H](Cc1ccccc1)NC(=O)[C@H](C)NC(=O)[C@H](CCCCNC(=O)COCCOCCNC(=O)COCCOCCNC(=O)CC[C@H](NC(=O)CCCCCCCCCCCCCCCCCCC(=O)O)C(=O)O)NC(=O)[C@H](CCC(N)=O)NC(=O)[C@H](C)NC(=O)[C@@H](NC(=O)[C@H](CCCCN)NC(=O)[C@H](CC(=O)O)NC(=O)[C@H](CC(C)C)NC(=O)C(C)(C)NC(=O)[C@@H](NC(=O)[C@H](CO)NC(=O)[C@H](Cc1ccc(O)cc1)NC(=O)[C@H](CC(=O)O)NC(=O)[C@H](CO)NC(=O)[C@@H](NC(=O)[C@H](Cc1ccccc1)NC(=O)[C@@H](NC(=O)CNC(=O)[C@H](CCC(=O)O)NC(=O)C(C)(C)NC(=O)[C@@H](N)Cc1ccc(O)cc1)[C@@H](C)O)[C@@H](C)O)[C@@H](C)CC)[C@@H](C)CC)C(C)C)C(=O)N[C@@H](C)C(=O)NCC(=O)NCC(=O)N1CCC[C@H]1C(=O)N[C@@H](CO)C(=O)N[C@@H](CO)C(=O)NCC(=O)N[C@@H](C)C(=O)N1CCC[C@H]1C(=O)N1CCC[C@H]1C(=O)N1CCC[C@H]1C(=O)N[C@@H](CO)C(N)=O [Tirzepatide] | 18.6 | 53.4 ± 2.32 | 53.4 ± 1.93 | 12.31 ± 2.51 | – | 11.88 ± 1.32 | – | 0.0589 | –
